Results on 14 compounds are retold here after article PMC9227096, “Design, Synthesis, and In Vitro, In Silico and In Cellulo Evaluation of New Pyrimidine and Pyridine Amide and Carbamate Derivatives as Multi-Functional Cholinesterase Inhibitors” (Pharmaceuticals, 2022).

What all share (format): biochemical
Assay [1] deals with T1, Electrophorus electricus AChE (EeAChE) (Electrophorus electricus, UniProt O42275).
T1 construct: purchased Sigma-Aldrich (Milan, Italy)
As to the kind of experiment: Ellman's spectrophotometric method, percent inhibition of EeAChE (zero time and after 1 h incubation). Conditions: for % Inhibition vs. EeAChE ± SD: [I] 9 µM; for inhibition at 0.9 µM: read-out: % Inhibition vs. EeAChE ± SD, [I] 900 nM. How it is done:
(§1) Regarding the synthesized compounds enzymatic inhibition studies were carried out on Electrophorus electricus AChE (EeAChE) and equine BChE (eqBChE), according to Ellman’s spectrophotometric method.
(§2) All other chemical and biological reagents and solvents used were of the highest analytical, commercially available grade. The water, utilized for the preparation of the phosphate buffer and of the solutions of compounds, was distilled and filtered on nylon membrane filters with 0.2 μm pore size with the Millipore® Filtration apparatus before each use. Micropipettes Labmate (BRAND Dig. 10–100 μL; Dig. 100–1000 μL; Dig. 0.1–2 μL) and Transferpette (HIGH TECH LAB LM200: 20–200 μL; LM5000: 1000–5000 μL) were used to collect the samples. The assays were carried out by double beam UV–Vis Lambda 40 Perkin Elmer spectrophotometer, using optical polystyrene cuvettes (10 × 10 × 45 mm, 340–800 nm optical transparency), each measure was repeated at least in triplicate. […] Vivaspin® 2 Sartorius, with a membrane of 3000 MWCO (molecular weight cutoff) consisting of polyethersulfone (PES), cellulose triacetate (CTA) and hydrosart, was used for the ultrafiltration procedures. An ALC PK110 bench-top centrifuge was used for centrifugation. The spectrophotometric method of Ellman, with minor modifications, was used to evaluate the inhibition of cholinesterase enzymes. […] EeAChE and eqBChE were periodically tested to evaluate the effective enzymatic activity.
(§3) An amount of 3.0 mL of a solution in 0.1 M phosphate buffer (pH = 7.4) containing DTNB (0.25 mM) and EeAChE (0.083 UmL^−1) or eqBChE (0.083 UmL^−1) were placed in a polystyrene cuvette of 1.0 cm path length; 1 µL of a solution in DMSO of the tested compound was added to obtain in cuvette concentration range 9 µM–0.09 µM. With this solution the blank was made.
(§4) Each experiment was repeated at least in triplicate.
(§5) The cuvettes were prepared consecutively at intervals of 3 min to allow equal incubation times.

Assay [2] deals with T2, equine BChE (eqBChE) (Equus caballus, UniProt P81908).
T2 construct: purchased Sigma-Aldrich (Milan, Italy)
As to the kind of experiment: Ellman's spectrophotometric method, percent inhibition of eqBChE (zero time and after 1 h incubation). Particulars: for inhibition at 9 µM / % Inhibition vs. eqBChE ± SD: [I] 9 µM; for inhibition at 9 µM / inhibition at 0.9 µM: read-out: % Inhibition vs. eqBChE ± SD. Here is the method: as §1, §2, §3, §4, §5

In assay [3] the target is T2, equine BChE (eqBChE). As to the kind of experiment: Reversibility of inhibition vs. eqBChE (ultrafiltration and washing). Conditions: for inhibition at 54 µM: carbaryl 54 µM. How it is done: Moreover, it was evaluated whether the inhibition mechanism of carbamate 18 towards eqBChE is reversible, irreversible or pseudo-irreversible. For this purpose, the percentages of inhibition were determined both after one hour of the incubation of compound 18 (5.4 µM) with eqBChE (1.25 U), both following the removal of the inhibitor and the washing of the enzyme, carried out through ultrafiltration devices for the concentration of biological samples [35, 36]. To validate the method, the same study was performed with carbaryl (54 µM), a known carbamoylating cholinesterase inhibitor.
After the incubation phase, the solution containing the inhibitor not bound to the enzyme was removed by centrifugation, retaining eqBChE on the membrane of the ultrafiltration devices. Then the enzyme was washed with phosphate buffer, to remove the bound inhibitor and to restore the enzyme activity.
Three solutions were prepared in 0.1 M phosphate buffer (pH = 7.4), containing eqBChE (0.50 UmL^−1), DTNB (0.3 mM) and acetylthiocholine (10 mM), respectively. A solution of compound 18 in DMSO (2.7 mM) was prepared. Then six Vivaspin® were used: • three were prepared with 2.5 mL of eqBChE solution (0.50 UmL^−1) and 5 µL of inhibitor solution; • three were prepared with 2.5 mL of eqBChE solution (0.50 UmL^−1) and 5 µL of DMSO.
The Vivaspin® thus prepared were incubated for 1 h at 25 °C. After this time the percentage of inhibition was determined following the Ellman method. The blank was recorded by taking 500 µL from the Vivaspin® and diluting them in the cuvette in 2.5 mL of DTNB solution (0.3 mM). The reaction was activated by adding 30 μL of acetylthiocholine solution (10 mM), so as to obtain a final concentration of 100 µM in the cuvette. The absorbance variation was measured between 0.5 and 1.5 min at 412 nm, repeating the measurement for each of the six Vivaspin®.
After this procedure the first centrifugation of the Vivaspin® was carried out for 60 min at 4000 rpm and subsequently the solutions that crossed the membrane and settled in the filtrate tube were removed. In this way the solutions present in the concentrator body were concentrated up to 100 µL. To these solutions 1 mL of 0.1 M phosphate buffer (pH = 7.4) was added and the second centrifugation was carried out for 30 min at 4000 rpm. The solutions present in the concentrator body were concentrated up to 200 µL. The second washing was carried out, adding 1 mL of buffer and centrifuging for 30 min at 4000 rpm. The solutions present in the concentrator body were concentrated up to 250 µL. A third wash was carried out adding 1 mL of buffer and centrifuging for 50 min at 4000 rpm. The solutions present in the concentrator body were concentrated up to 150 µL. At this point, to recover the concentrated solution, the filtrate tube was removed, the concentrator body was turned upside down and inserted inside the concentrate recovery cap. The Vivaspin® was centrifuged for 10 min at 4000 rpm. After this time the recovered solution was taken up with 3 mL of DTNB solution (0.3 mM) and transferred into the cuvette: blank was recorded. The reaction was activated when 30 µL of substrate solution (10 mM) were added so as to have a final concentration of 100 µM in the cuvette. The absorbance variation between 0.5 and 1.5 min was measured at 412 nm, repeating the measurement for each of the recovered solutions.
As a positive control carbaryl was used, for which the same procedure was followed, using a 27 mM carbaryl stock solution in DMSO.

Setting [4] is: read-out: % Inhibition vs. EeAChE ± SD, [I] 9 µM, 0.0833 U/mL enzyme, 100 µM acetylthiocholine.
Setting [5] is: 0.0833 U/mL enzyme, 100 µM acetylthiocholine.
[6] abbreviates: [I] 900 nM, 0.0833 U/mL enzyme, 100 µM acetylthiocholine.
The mark [7] stands for this setting: 1 h, read-out: % Inhibition vs. EeAChE ± SD, [I] = 9 µM, t = 1 h incubation at 25 °C.
Where [8] appears, read: 1 h, [I] = 900 nM, t = 1 h incubation at 25 °C.

SMILES strings stand for the structures. Like-named read-outs stand apart in the source and are kept apart here.

T2 sequence (P81908 whole entry): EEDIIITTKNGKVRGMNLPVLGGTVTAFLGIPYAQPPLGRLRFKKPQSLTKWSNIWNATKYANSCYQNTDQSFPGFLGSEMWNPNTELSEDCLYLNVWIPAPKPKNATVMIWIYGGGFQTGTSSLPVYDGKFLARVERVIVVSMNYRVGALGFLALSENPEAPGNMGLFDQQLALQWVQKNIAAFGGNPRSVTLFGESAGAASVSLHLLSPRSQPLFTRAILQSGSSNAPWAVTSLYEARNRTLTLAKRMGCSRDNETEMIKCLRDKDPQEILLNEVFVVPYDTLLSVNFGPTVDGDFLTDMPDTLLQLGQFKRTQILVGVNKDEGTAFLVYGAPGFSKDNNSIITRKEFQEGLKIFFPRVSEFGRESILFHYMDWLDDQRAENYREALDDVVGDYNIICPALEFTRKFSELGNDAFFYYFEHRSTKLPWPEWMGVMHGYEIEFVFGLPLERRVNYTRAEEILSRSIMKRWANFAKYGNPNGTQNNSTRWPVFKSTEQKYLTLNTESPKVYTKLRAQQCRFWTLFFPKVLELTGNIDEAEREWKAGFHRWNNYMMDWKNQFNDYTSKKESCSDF
T1 sequence (O42275 24-633): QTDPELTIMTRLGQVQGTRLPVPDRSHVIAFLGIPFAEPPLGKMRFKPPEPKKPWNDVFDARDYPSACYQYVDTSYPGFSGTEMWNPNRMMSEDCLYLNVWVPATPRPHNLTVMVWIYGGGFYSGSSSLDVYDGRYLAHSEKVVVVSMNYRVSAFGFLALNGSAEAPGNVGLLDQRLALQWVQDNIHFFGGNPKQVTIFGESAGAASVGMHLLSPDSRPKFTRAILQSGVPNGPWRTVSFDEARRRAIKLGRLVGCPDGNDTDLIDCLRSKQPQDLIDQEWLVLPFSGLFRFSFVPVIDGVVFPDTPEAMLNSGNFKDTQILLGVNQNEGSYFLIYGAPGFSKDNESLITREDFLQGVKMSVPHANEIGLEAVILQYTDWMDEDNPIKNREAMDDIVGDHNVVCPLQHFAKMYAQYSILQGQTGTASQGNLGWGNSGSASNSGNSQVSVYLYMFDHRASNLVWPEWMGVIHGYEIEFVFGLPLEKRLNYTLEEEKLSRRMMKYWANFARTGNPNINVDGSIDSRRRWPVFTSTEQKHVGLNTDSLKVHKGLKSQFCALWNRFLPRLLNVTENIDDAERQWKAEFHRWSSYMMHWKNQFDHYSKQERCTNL

As for `O=C(NCCCCCCNc1ncccn1)c1ccccc1` [Compound 3, N-(6-(pyrimidin-2-ylamino)hexyl)benzamide], the inhibition at 9 µM was ~3% in assay [1] (setting [4]) and ~9% on equine BChE (eqBChE) [2] (setting [5]).
For `O=C(Cc1ccccc1)NCCCCCCNc1ncccn1` [Compound 4, 2-phenyl-N-(6-(pyrimidin-2-ylamino)hexyl)acetamide], in that order: 5 ± 4.4% and 5.1 ± 4.7%.
For `O=C(Cc1ccc(Oc2ccccc2)cc1)NCCCCCCNc1ncccn1` [Compound 5, 2-(4-phenoxyphenyl)-N-(6-(pyrimidin-2-ylamino)hexyl)acetamide], in that order: 10.8 ± 2.7% and 16.6 ± 5.5%.
Consider `O=C(C=Cc1ccccc1)NCCCCCCNc1ncccn1` [Compound 6, N-(6-(pyrimidin-2-ylamino)hexyl)cinnamamide], for which, in assay [1] (setting [5]), the “% Inhibition vs. EeAChE ± SD” value is recorded as “ns ^c” and the inhibition at 0.9 µM was determined as 7 ± 1.6%. Moreover, the “% Inhibition vs. eqBChE ± SD” value on equine BChE (eqBChE) [2] (setting [5]) is listed as “ns ^c”.
Turning to `O=C(NCCCCCCNc1ncccn1)c1ccc(Br)cc1` [Compound 7, 4-bromo-N-(6-(pyrimidin-2-ylamino)hexyl)benzamide], the inhibition at 9 µM in assay [1] (setting [4]) was 11.2 ± 5%; on equine BChE (eqBChE) [2] (setting [5]), 7.4 ± 2%.
In the same order, the values of `O=C(NCCCCCCNc1ncccn1)c1ccc(Cl)cc1` [Compound 8, 4-chloro-N-(6-(pyrimidin-2-ylamino)hexyl)benzamide] are 9.9 ± 0.8% and 2.1 ± 3.5%.
Take `COc1ccccc1C(=O)NCCCCCCNc1ncccn1` [Compound 9, 2-methoxy-N-(6-(pyrimidin-2-ylamino)hexyl)benzamide]: the inhibition at 9 µM in assay [1] (setting [4]) amounted to 7.2 ± 0.8%; on equine BChE (eqBChE) [2] (setting [5]), 9.3 ± 2.4%.
Turning to `O=C(NCCCCCCNc1ncccn1)c1cc2ccccc2[nH]1` [Compound 11, N-(6-(pyrimidin-2-ylamino)hexyl)-1H-indole-2-carboxamide], in assay [1] (setting [5]), the “% Inhibition vs. EeAChE ± SD” value is recorded as “ns ^c”. For the same compound, the inhibition at 0.9 µM in assay [1] (setting [5]) was found to be 5.5 ± 1.4%; on equine BChE (eqBChE) [2] (setting [6]), 14.1 ± 4.7%. Besides, the “% Inhibition vs. eqBChE ± SD” value at equine BChE (eqBChE) [2] (setting [5]) was “ns ^c”.
Regarding `O=C(Cc1ccccc1)NCCCCCCNc1ccccn1` [Compound 13, 2-phenyl-N-(6-(pyridine-2-ylamino)hexyl)acetamide], the inhibition at 9 µM amounted to 46.7 ± 1.1% in assay [1] (setting [4]) and 49.1 ± 3.2% on equine BChE (eqBChE) [2] (setting [5]). Also, the inhibition at 0.9 µM on equine BChE (eqBChE) [2] (setting [6]) was 4.3 ± 5.6%.
In the same order, the values of `O=C(C=Cc1ccccc1)NCCCCCCNc1ccccn1` [Compound 15, N-(6-(pyridin-2-ylamino)hexyl)cinnamamide] are 45.4 ± 2.5%, 64.7 ± 2.9% and 31.5 ± 3.1%.
With `O=C(NCCCCCCNc1ncccn1)Oc1ccccc1` [Compound 16, Phenyl (6-(pyrimidin-2-ylamino)hexyl)carbamate], in assay [1] (setting [7]), the inhibition at 9 µM turned out to be 7.2 ± 0.8%. Moreover, the inhibition at 0.9 µM at equine BChE (eqBChE) [2] (setting [8]) was found to be 66.4 ± 5.9%.
In the same order, the values of `O=C(NCCCCCCNc1ncccn1)OCc1ccccc1` [Compound 17, Benzyl (6-(pyrimidin-2-ylamino)hexyl)carbamate] are 10.9 ± 1.4% and 13.3 ± 3.9%.
In the same order, the values of `O=C(NCCCCCCNc1ccccn1)OCc1ccccc1` [Compound 19, Benzyl (6-(pyridin-2-ylamino)hexyl)carbamate] are 45.4 ± 2.7% and 32.4 ± 7.5%.
`CNC(=O)Oc1cccc2ccccc12` [carbaryl, reference compound]: the inhibition at 54 µM at equine BChE (eqBChE) [3] (after ultrafiltration and washing with phosphate buffer, read-out: percentage of inhibition of eqBChE after removal of inhibitor and washing of the enzyme) was 29.9%; at equine BChE (eqBChE) [3] (before washing, read-out: percentage of inhibition of eqBChE after one hour of incubation) it was 97.4%. Further, at equine BChE (eqBChE) [3] (from restoration of enzymatic activity after washing), the “inhibition mechanism towards eqBChE (reversible, irreversible or pseudo-irreversible)” value is “pseudo-irreversible”.
